In one experiment the test system is IL-1β mRNA. The experiment is described as follows: Ocular IL-1β mRNA by quantitative real-time PCR in CEC dry eye mice. Particulars: CEC 14 days, then topical PDSP for 5 days. Format: in vivo, C57BL6 mice. The method, then: (§1) Dry eye is associated with abnormalities in the pre-corneal tear film and subsequent inflammatory changes in the entire ocular surface including the adnexa, conjunctiva and cornea. (see, Hessen et al., “Dry eye: An Inflammatory Ocular Disease,” J. Ophthalmic Vis. Res., 2014, 9(2): 240-250). Therefore, the effects of PDSPs in corneal inflammatory responses were next examined. Briefly, C57BL6 mice were housed in CEC for 14 days (Day 0) and then treatment with PDSP or vehicle were performed for additional 5 days (Day 5). Then, mRNA levels for inflammatory factors were evaluated by quantitative real-time PCR.
(§2) The total RNA was extracted from cells using TRIzol (Invitrogen) and treated with RNase free DNase I (Qiagen, Santa Clarita, CA) to remove genomic DNA and then purified with an RNA purification kit (Dynabeads; Invitrogen). […] Quantitative real-time PCR was performed in a GeneAmp 7700 sequence detection system (Applied Biosystems, Foster City, CA). […] All determinations were measured in triplicate. The cycle threshold (Ct) values corresponded to the PCR cycle number at which fluorescence emission in real time reaches a threshold above the base-line emission were analyzed using GeneAmp 7700 SDS software. The Ct value of the PCR product of interest and a control mRNA (GAPDH) were then used to calculate relative quantities of mRNA between samples.
(Quantitative PCR measures a nucleic acid by following its amplification.)

For a further experiment, the system named is MMP-9 activity. Description: MMP-9 activity by gelatin zymography in NaCl-treated corneal epithelial cells. Format: cell-based, rabbit. The following applies: PDSP pretreatment 20 hours, then hyperosmotic medium (463 mOsM) 24 hours. The method, then:
Limbal stem cells were isolated from 6-month-old New Zealand white rabbits and continuously cultivated for 14 days by DMEM/F-12 basal medium based cell-suspension culture to achieve corneal-liked epithelial cell differentiation as previously described (Ho et al., 2013). To induce ROS or MMP-9 activity caused by hyperosmotic stress, cells were incubated overnight in hypertonic media (463 mOsm) achieved by addition of 90 mM NaCl. Cells cultured in DMEM/F-12 basal medium (309 mOsm) was used as negative control. To detect the preventive effect on hyperosmotic stress-induced ROS or MMP-9 activity, cells were pretreated with 10 μM PDSP for 20 hours before the treatment of NaCl.
To detect MMP-9 activity, 10 μL of culture medium was used to perform gelatin zymography as previous described method (Li et al., 2004). The band intensity was evaluated in zymography with a model GS-700 imaging densitometer (Bio-Rad Laboratories, Hercules, Calif.) and analyzed using Labworks 4.0 software.
To investigate the effect of PDSP on hyperosmotic stress-induced MMP-9 expression in corneal epithelial cells, cells were pretreated with the PDSP or control peptide (ConP) for 20 hours and then exposed the cells to hyperosmotic medium (463 mOsM) for another 24 hours. […] However, the PDSP pretreatment repressed the MMP-9 mRNA expression by a factor of 2-fold.

The next experiment concerns IL-6 mRNA. Description: Ocular IL-6 mRNA by quantitative real-time PCR in CEC dry eye mice. Format: in vivo, C57BL6 mice. The following applies: CEC 14 days, then topical PDSP for 5 days. The method, then: as §1, §2
The next experiment concerns MMP-9 mRNA. Description: MMP-9 mRNA by quantitative real-time PCR in NaCl-treated corneal epithelial cells. The experiment is classed as cell-based, rabbit. As for the experimental part: Therefore, we also examined the effects of PDSP on the MMP-9 mRNA expression and activity in NaCl-treated rabbit corneal epithelial cells. Briefly, rabbit corneal epithelial cells were treated as described above. […] Hyperosmotic stress induced a substantial (about 2-fold) increase in MMP-9 mRNA level (Negative control peptide, ConP, followed by NaCl treatment). […] The increases in MMP-9 mRNA levels substantially correlate with the expression of the MMP-9 protein as measured with SDS-gel and enzymatic activities, as shown in FIG. 7(B).
The total RNA was extracted from cells using TRIzol (Invitrogen) and treated with RNase free DNase I (Qiagen, Santa Clarita, CA) to remove genomic DNA and then purified with an RNA purification kit (Dynabeads; Invitrogen). Synthesis of cDNA was performed by Superscript III (Invitrogen). Quantitative real-time PCR was performed in a GeneAmp 7700 sequence detection system (Applied Biosystems, Foster City, CA). […] All determinations were measured in triplicate. The cycle threshold (Ct) values corresponded to the PCR cycle number at which fluorescence emission in real time reaches a threshold above the base-line emission were analyzed using GeneAmp 7700 SDS software. The Ct value of the PCR product of interest and a control mRNA (GAPDH) were then used to calculate relative quantities of mRNA between samples. […]

As to “PDSP: 29mer, residues 93-121 of human PEDF: SLGAEQRTESIIHRALYYDLISSPDIHGT (SEQ ID NO:4) (listed as Homo sapiens)”, the “repression of ocular IL-1β mRNA expression compared to vehicle-treated group” value in the experiment on IL-1β mRNA came out at 2.4 fold. Further, the “repression of MMP-9 activity (gelatin zymography)” value in the experiment on MMP-9 activity worked out at 3 fold. In addition, the “repression of ocular IL-6 mRNA expression compared to vehicle-treated group” value in the experiment with IL-6 mRNA was 2.0 fold. In addition, the “MMP-9 mRNA levels without hyperosmotic stress (peptide alone)” value in the experiment on MMP-9 mRNA (PDSP alone, isotonic medium) was “did not have effect”. Further, the “repression of MMP-9 mRNA expression” value in the experiment on MMP-9 mRNA (PDSP pretreatment 20 hours, then hyperosmotic medium (463 mOsM) 24 hours) stood at 2 fold.

The record behind these values is US11760784B2, “Compositions comprising PEDF-derived short peptides and uses thereof” (BRIM Biotechnology, Inc., priority 2016, dated 2023).
